US10532066B2, “Surfactant lipids, compositions thereof, and uses thereof” (National Jewish Health, priority 2007, dated 2020)

Key:
[1] = test system: differentiated U937 cells; assay: LPS-induced TNF-α secretion by differentiated U937 cells; format: cell-based, human; conditions: LPS 10 ng/ml, 6 h, liposomes; LPS without phospholipid = 100%
Experimental: (§1) FIG. 1. Anionic phospholipids inhibit inflammatory mediator production induced by LPS. Liposomes composed of sphingomyelin (SM), phosphatidylethanolamine (PE) dipalmitoyl-phosphatidylcholine ((DPPC), phosphatidylserine (PS), palmitoyl-oleoyl-phosphatidylglycerol (POPG) and phosphatidylinositol (PI) were formed by bath-sonication for 30 min at room temperature. LPS (10 ng/ml) and different concentrations of phospholipids were added to monolayer cultures of differentiated U937 cells (A), or primary rat alveolar macrophages (B). At 6 h after stimulation, media were collected and secreted TNF-α levels were determined in U937 cultures. NO production was determined 24 h after stimulating rat alveolar macrophages. LPS stimulation in the absence of phospholipid was set as 100%. […] The average TNF-α production upon LPS stimulation was (8.0±0.54 ng/ml). The average NO production upon LPS stimulation was 12.17±0.27 μM.
(§2) FIG. 2. The inhibitory effect of phosphatidylglycerols on LPS-induced inflammatory mediator production is molecular species specific. PG liposomes were formed by bath-sonication for 30 min at room temperature. LPS (10 ng/ml) and different concentrations of PG were added to monolayer cultures of differentiated U937 cells (A) or rat alveolar macrophages (B). Media TNF-α measurements were performed 6 h after stimulation. Media NO measurements were performed 24 h after stimulation. LPS stimulation without PG was set at 100%. The molecular species of PG shown on the graph are 8:0; dioctanoyl-phosphatidylglycerol, 12:0; dilauroyl-phosphatidylglycerol (DLPG), 14:0; dimyristoyl-phosphatidylglycerol (DMPG), 16:0; dipalmitoyl-phosphatidylglycerol (DPPG), 18:0; distearoyl-phosphatidylglycerol, 16:0/18:1; palmitoyl-oleoyl-phosphatidylglycerol (POPG). […] The average TNF-α production upon LPS stimulation was 11.3±0.7 ng/ml. The average NO production upon LPS stimulation was 10.1±0.6 μM.
FIG. 3. […] Surfactant lipid (SL) and POPG were dried under nitrogen, and hydrated at 37° C. for 1 h. (A) SL and POPG were mixed in organic solvents prior to drying and hydrating and subsequently liposomes were produced. (B) SL and POPG were made as independent populations of liposomes that were subsequently mixed prior to macrophage treatment. 10 ng/ml of LPS and different concentrations of liposome mixtures were added to monolayer cultures of differentiated U937 cells. 6 h after stimulation, media were collected and TNF-α production was determined. LPS stimulation without phospholipid was set as 100%. […] The average TNF-α production upon LPS stimulation was 7.0±0.2 ng/ml.
U937 cells were induced to differentiate by treatment with 10 nM phorbol myristate acetate (PMA) for 48 h. The cells (1.3×10^5/well) were placed in 96-well plates and further incubated in the absence of PMA for 24 h in RPMI 1640 medium containing 10% BGS. Rat alveolar macrophages (5×10^5/well) were incubated in 24-well plates for 2 h after isolation. The indicated concentration of phospholipids was added to the cultures 30 min before adding LPS. After LPS addition cultures were incubated for 6 h at 37° C. at an atmosphere of 95% air and 5% CO2. At the end of the incubation period the medium was collected and assayed for TNF-α concentrations using an ELISA kit.
Surfactant lipids were isolated from the bronchioalveolar lavage of Sprague-Dawley rats, 28 days after intratracheal instillation of 25 mg of silica (˜125 mg/kg). Initially, the surfactant was purified by the method of Hawgood et. al. (25) using NaBr density gradient centrifugation. The purified surfactant was extracted with butanol (26) and segregated into butanol-soluble and -insoluble material.

[2] = test system: primary rat alveolar macrophages; assay: LPS-induced NO production by rat alveolar macrophages; format: cell-based; conditions: LPS 10 ng/ml, 24 h, liposomes; LPS without phospholipid = 100%
Experimental: as §1, §2
Rat alveolar macrophages were isolated from bronchoalveolar lavage fluid (BALF) of Sprague-Dawley rats. The lungs were lavaged with pyrogen-free saline, and alveolar macrophages were sedimented by centrifugation at 150×g×5 min. Isolated macrophages were plated at 5×10^5 cells/well in 24-well plates (Falcon) in RPMI 1640 medium containing 10% BGS. The cells were allowed to adhere for 2 h and then used for the experiments after washing with phosphate-buffered-saline (PBS) to remove the unattached cells.
Nitric oxide (NO) accumulation in the supernatant was determined as previously reported (28). Briefly, rat alveolar macrophages were stimulated with LPS (10 ng/ml) or LPS plus phospholipids for 24 h. Culture supernatants (usually […]) were combined with an equal volume of Greiss reagent, and the samples were incubated at room temperature for 10 min before the absorbance was quantified at 550 nm. With the use of a standard curve, the nmol of NO produced were determined and normalized to total cell number in each sample.

U937 macrophages = assay: TNFα in U937 macrophages stimulated with smooth LPS, with SP-A and PtdGro; format: cell-based; conditions: 100 ng/ml smooth LPS, 6 hours, lipid 20 μg/ml
Experimental: U937 macrophages were stimulated with 100 ng/ml smooth LPS for 6 hours. The culture medium was harvested and assayed for the presence of TNFα by ELISA. Control cultures received no additions. SP-A was added as indicated at 10 μg/ml. Saturated-(16:0/16:0)-PtdGro was added at 20 μg/ml. Unsaturated-(18:1/18:1)-PtdGro was added at 20 μg/ml.

**Q.** For `CCCCCCCC(=O)OCC(COP(=O)(O)OCC(O)CO)OC(=O)CCCCCCC` (stereo not drawn) [8:0, dioctanoyl-phosphatidylglycerol], which “LPS-induced TNF-α production” value [1] is on record?
**A.** failed to antagonize

**Q.** And the “LPS-induced NO production” value [2]?
**A.** failed to antagonize

**Q.** Which “LPS-induced TNF-α production” value [1] does the source give for `CCCCCCCCCCCC(=O)OCC(COP(=O)(O)OCC(O)CO)OC(=O)CCCCCCCCCCC` (stereo not drawn) [12:0, dilauroyl-phosphatidylglycerol] here?
**A.** modest antagonists

**Q.** How did the “LPS-induced TNF-α production” value [1] turn out when `CCCCCCCCCCCCCCCCCC(=O)OCC(COP(=O)(O)OCC(O)CO)OC(=O)CCCCCCCCCCCCCCCCC` (stereo not drawn) [18:0, distearoyl-phosphatidylglycerol] was run?
**A.** failed to antagonize

**Q.** And the “LPS-induced NO production” value [2]?
**A.** failed to antagonize

**Q.** For `CCCCCCCC/C=C\CCCCCCCC(=O)OC[C@H](COP(=O)(O)OCC(O)CO)OC(=O)CCCCCCC/C=C\CCCCCCCC` (stereo partly drawn) [unsaturated-PtdGro, dioleoyl-phosphatidylglycerol], which “anti-inflammatory effects on LPS stimulated macrophages (TNFα)” value (U937 macrophages) is on record?
**A.** potent anti-inflammatory effects

**Q.** Which results are given for phosphatidylethanolamine [PE]?
**A.** LPS-induced TNF-α production [1]: no significant effect; LPS-induced NO production [2]: no significant effect

**Q.** How did the “LPS-induced TNF-α production” value [1] turn out when phosphatidylserine [PS] was run?
**A.** less effective than PI and POPG

**Q.** And the “LPS-induced NO production” value [2]?
**A.** less effective than PI and POPG

**Q.** Which results are given for sphingomyelin [SM]?
**A.** LPS-induced TNF-α production [1]: no significant effect; LPS-induced NO production [2]: no significant effect
